In general, IC50 refers to the concentration that inhibits the measured activity by half.

The values below come from paper PMC6237192 (European journal of medicinal chemistry, 2018).

Experiment [1] deals with MT4 cells. As to the kind of experiment: Cytotoxicity. It is filed as cell-based, human. The conditions noted are these: ratio of CC50 to IC50.
For experiment [2], the system named is HIV-1NL4-3 (subtype B). As to the kind of experiment: Antiviral activity in MT-4 human T-lymphoid cells exposed to HIV-1NL4-3. It is filed as cell-based. The settings on record: Human immunodeficiency virus 1, MT4, in Homo sapiens.

Take `COc1ccc(S(=O)(=O)N(CC(C)C)C[C@@H](O)[C@H](Cc2ccccc2)NC(=O)c2ccc3c(c2)[C@@H](NC(=O)OC(C)(C)C)CCS3(=O)=O)cc1` [Inhibitor 4e, tert-Butyl ((S)-6-(((2S,3R)-3-hydroxy-4-((N-isobutyl-4-methoxyphenyl)sulfonamido)-1-phenylbutan-2-yl)carbamoyl)-1,1-dioxidothiochroman-4-yl)carbamate]: in experiment [1], the “Selectivity Index” value was greater than 2128. On to `CC(C)CN(C[C@@H](O)[C@H](Cc1ccccc1)NC(=O)O[C@H]1CCOC1)S(=O)(=O)c1ccc(N)cc1` [amprenavir], for which inhibition in experiment [2] was half-maximal at 30 nM (IC50).
